# From US8637501B2, “Azinone-substituted azepino[b]indole and pyrido-pyrrolo-azepine MCH-1 antagonists, methods of making, and use thereof” (Albany Molecular Research, Inc., priority 2009, dated 2014)
# Key:
# human MCH-1 receptor = human MCH-1 receptor (Homo sapiens (Human), UniProt Q99705); assay: Binding Assay for Human Melanin-Concentrating Hormone (MCH-1) Receptor; conditions: radioligand displacement, membranes from CHO-K1 cells expressing human MCH-1 receptor; Ki from IC50 by Cheng Prusoff equation; read-out: MCH1 Ki
# Method in brief: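 Membranes from CHO-K1 cells stably expressing human MCH-1 incubated 60 min at 25 °C with 1.4 nM tritiated indazolyl-pyridinone radioligand in 50 mM Tris-HCl pH 7.4. Bound counts by filtration and scintillation; IC50 and nH by Hill fit, Ki by Cheng–Prusoff.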
# Sequence of human MCH-1 receptor (Q99705 whole entry): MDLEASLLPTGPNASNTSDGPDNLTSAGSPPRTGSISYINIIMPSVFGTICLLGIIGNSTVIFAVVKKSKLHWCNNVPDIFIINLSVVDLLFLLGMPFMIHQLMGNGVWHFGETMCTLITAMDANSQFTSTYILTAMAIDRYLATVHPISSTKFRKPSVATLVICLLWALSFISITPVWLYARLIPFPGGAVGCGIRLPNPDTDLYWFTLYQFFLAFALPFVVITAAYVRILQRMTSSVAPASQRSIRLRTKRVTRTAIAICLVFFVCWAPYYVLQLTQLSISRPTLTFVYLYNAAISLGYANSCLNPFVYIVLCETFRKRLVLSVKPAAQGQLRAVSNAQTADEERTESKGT
Ki (human MCH-1 receptor) [nM],melting point,Structure (SMILES)
33,238 to 240 °C,"Cl.Cn1c2c(c3ccc(-n4ccc(OCc5ccc(F)cn5)cc4=O)nc31)CCNCC2 [Example 81, 4-((5-Fluoropyridin-2-yl)methoxy)-1-(10-methyl-5,6,7,8,9,10-hexahydropyrido[3′,2′:4,5]pyrrolo[2,3-d]azepin-2-yl)pyridin-2(1H)-one hydrochloride]"
15,308 to 312 °C,"Cl.Cn1c2c(c3ccc(-n4ccc(-c5ccc(C(F)(F)F)nc5)cc4=O)nc31)CNCCC2 [Example 89, 1-(10-Methyl-5,6,7,8,9,10-hexahydropyrido[3′,2′:4,5]pyrrolo[3,2-c]azepin-2-yl)-4-(6-(trifluoromethyl)pyridin-3-yl)pyridin-2(1H)-one hydrochloride]"
6.4,328 to 332 °C,"Cl.Cn1c2c(c3ccc(-n4ccc(OCc5ccccc5)cc4=O)nc31)CNCCC2 [Example 90, 4-(Benzyloxy)-1-(10-methyl-5,6,7,8,9,10-hexahydropyrido[3′,2′:4,5]pyrrolo[3,2-c]azepin-2-yl)pyridin-2(1H)-one hydrochloride]"

# The next lines start with the compound.
Structure (SMILES),Ki (human MCH-1 receptor) [nM],melting point
"Cl.Cn1c2c(c3ccc(-n4ccc(-c5ccc(C(F)(F)F)cn5)cc4=O)nc31)CCNCC2 [Example 80, 1-(10-Methyl-5,6,7,8,9,10-hexahydropyrido[3′,2′:4,5]pyrrolo[2,3-d]azepin-2-yl)-4-(5-(trifluoromethyl)pyridin-2-yl)pyridin-2(1H)-one hydrochloride]",69,310 to 314 °C (dec.)
"Cl.Cn1c2c(c3ccc(-n4ncc(OCc5ccc(F)cn5)cc4=O)nc31)CCNCC2 [Example 82, 5-((5-Fluoropyridin-2-yl)methoxy)-2-(10-methyl-5,6,7,8,9,10-hexahydropyrido[3′,2′:4,5]pyrrolo[2,3-d]azepin-2-yl)pyridazin-3(2H)-one hydrochloride]",53,226 to 230 °C (dec.)
"Cl.Cn1c2c(c3ccc(-n4ccc(OCc5ncc(F)cc5F)cc4=O)cc31)CCNCC2 [Example 102, 4-((3,5-Difluoropyridin-2-yl)methoxy)-1-(6-methyl-1,2,3,4,5,6-hexahydroazepino[4,5-b]indol-8-yl)pyridin-2(1H)-one hydrochloride]",22,215 to 225 °C
"Cl.Cn1c2c(c3ccc(-n4ccc(OCc5ncc(F)cc5F)cc4=O)cc31)CNCCC2 [Example 106, 4-((3,5-Difluoropyridin-2-yl)methoxy)-1-(6-methyl-1,2,3,4,5,6-hexahydroazepino[4,3-b]indol-8-yl)pyridin-2(1H)-one hydrochloride]",18,180 to 190 °C
